# According to PubChem BioAssay AID180 (DTP/NCI, 2004):
# “And” between values parts separate entries of the source, which are not always exact repeats. Identical values can stand only once.
# System: BDF1 mice, Adenocarcinoma 755 s.c., tumor weight T/C
# Test: NCI In Vivo Anticancer Drug Screen. Data for tumor model Adenocarcinoma 755 (subcutaneous) in B6D2F1 (BDF1) mice
# Settings: endpoint: mean tumor weight, higher = larger tumour
# Procedure, shortened: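 Transplantable tumor implanted; mice dosed with compound or vehicle; survival or tumor size recorded; ratio of treated to vehicle control reported.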
# [1] = dose: 25.0 mg/kg/injection, schedule: Q01DX011 (ip), vehicle: methylcellulose (MC)
# [2] = dose: 100.0 mg/kg/injection, schedule: Q01DX011 (ip), vehicle: methylcellulose (MC)
# [3] = dose: 125.0 mg/kg/injection, schedule: Q01DX011 (ip), vehicle: methylcellulose (MC)
# [4] = dose: 250.0 mg/kg/injection, schedule: Q01DX011 (ip), vehicle: methylcellulose (MC)
# [5] = dose: 15.0 mg/kg/injection, schedule: Q01DX011 (ip), vehicle: methylcellulose (MC)
structure (smiles),measurement,setting,value
CCC(C)C(N=C1N=CNC2=NC=NC12)C(=O)O (stereo not given),T/C,"dose: 12.0 mg/kg/injection, schedule: Q01DX011 (ip), vehicle: methylcellulose (MC)",108 % of control
same,T/C,[1],106 % of control
same,T/C,"dose: 50.0 mg/kg/injection, schedule: Q01DX011 (ip), vehicle: methylcellulose (MC)",80 % of control
same,T/C,[2],98 % of control
C=CC1CN2CCC1CC2C(O)c1ccnc2ccc(OC)cc12 (stereo not given),T/C,"dose: 28.96 mg/kg/injection, schedule: Q01DX011 (ip), vehicle: carboxymethylcellulose (CMC)",109 % of control
same,T/C,"dose: 57.93 mg/kg/injection, schedule: Q01DX011 (ip), vehicle: carboxymethylcellulose (CMC)",121 % of control
same,T/C,"dose: 92.68 mg/kg/injection, schedule: Q01DX011 (ip), vehicle: carboxymethylcellulose (CMC)",70 % of control
same,T/C,"dose: 115.85 mg/kg/injection, schedule: Q01DX011 (ip), vehicle: carboxymethylcellulose (CMC)",76 % of control
same,T/C,[3],82 % of control
same,T/C,"dose: 154.46 mg/kg/injection, schedule: Q01DX011 (ip), vehicle: carboxymethylcellulose (CMC)",86 % of control
same,T/C,"dose: 231.7 mg/kg/injection, schedule: Q01DX011 (ip), vehicle: carboxymethylcellulose (CMC)",72 % of control
same,T/C,[4],91 % of control
COc1ccc(C(=O)OCC2OC(n3cnc4c(=S)nc[nH]c43)C(OC(=O)c3ccc(OC)cc3)C2OC(=O)c2ccc(OC)cc2)cc1 (stereo not given),T/C,"dose: 200.0 mg/kg/injection, schedule: Q01DX011 (ip), vehicle: carboxymethylcellulose (CMC)",28 % of control
same,T/C,"dose: 400.0 mg/kg/injection, schedule: Q01DX011 (ip), vehicle: carboxymethylcellulose (CMC)",2 % of control
same,T/C,"dose: 800.0 mg/kg/injection, schedule: Q01DX011 (ip), vehicle: carboxymethylcellulose (CMC)",7 % of control
O=c1[nH]c2[nH]c(S(=O)(=O)O)nc(=S)c2[nH]1,T/C,"dose: 75.0 mg/kg/injection, schedule: Q01DX011 (ip), vehicle: methylcellulose (MC)",43 % of control
same,T/C,"dose: 150.0 mg/kg/injection, schedule: Q01DX011 (ip), vehicle: methylcellulose (MC)",55 % of control
same,T/C,"dose: 300.0 mg/kg/injection, schedule: Q01DX011 (ip), vehicle: methylcellulose (MC)",67 % of control
same,T/C,"dose: 600.0 mg/kg/injection, schedule: Q01DX011 (ip), vehicle: methylcellulose (MC)",28 % of control
O=C(Nc1ccc(C2=NC3CCCCC3N2)cc1)c1cccc(C(=O)Nc2ccc(C3=NC4CCCCC4N3)cc2)c1 (stereo not given),T/C,[5],73 % of control
same,T/C,"dose: 30.0 mg/kg/injection, schedule: Q01DX011 (ip), vehicle: methylcellulose (MC)",81 % of control
same,T/C,"dose: 60.0 mg/kg/injection, schedule: Q01DX011 (ip), vehicle: methylcellulose (MC)",73 % of control
same,T/C,"dose: 120.0 mg/kg/injection, schedule: Q01DX011 (ip), vehicle: methylcellulose (MC)",59 % of control
O=C(Nc1ccc(N=Nc2ccc(O)c(C(=O)O)c2)cc1)c1ccc(C(=O)Nc2ccc(N=Nc3ccc(O)c(C(=O)O)c3)cc2)cc1,T/C,"dose: 30.0 mg/kg/injection, schedule: Q01DX011 (ip), vehicle: carboxymethylcellulose (CMC)",92 % of control
same,T/C,"dose: 60.0 mg/kg/injection, schedule: Q01DX011 (ip), vehicle: carboxymethylcellulose (CMC)",75 % of control
same,T/C,"dose: 120.0 mg/kg/injection, schedule: Q01DX011 (ip), vehicle: carboxymethylcellulose (CMC)",102 % of control
same,T/C,"dose: 240.0 mg/kg/injection, schedule: Q01DX011 (ip), vehicle: carboxymethylcellulose (CMC)",98 % of control
Clc1ccc(CNc2ncnc3c2cnn3C2CCCCO2)cc1Cl (stereo not given),T/C,"dose: 12.5 mg/kg/injection, schedule: Q01DX011 (ip), vehicle: methylcellulose (MC)",83 % of control
same,T/C,[1],105 % of control
same,T/C,[2],40 % of control and 61 % of control
same,T/C,"dose: 200.0 mg/kg/injection, schedule: Q01DX011 (ip), vehicle: methylcellulose (MC)",23 % of control
Brc1ccc(CSc2ncnc3nc[nH]c23)cc1,T/C,"dose: 43.75 mg/kg/injection, schedule: Q01DX011 (ip), vehicle: methylcellulose (MC)",70 % of control
same,T/C,"dose: 87.5 mg/kg/injection, schedule: Q01DX011 (ip), vehicle: methylcellulose (MC)",28 % of control
same,T/C,"dose: 175.0 mg/kg/injection, schedule: Q01DX011 (ip), vehicle: methylcellulose (MC)",10 % of control
same,T/C,"dose: 350.0 mg/kg/injection, schedule: Q01DX011 (ip), vehicle: methylcellulose (MC)",1 % of control
CCOC(=O)CCCc1ccc(N=NN(C)C(C)CC)cc1 (stereo not given),T/C,"dose: 62.0 mg/kg/injection, schedule: Q01DX011 (ip), vehicle: carboxymethylcellulose (CMC)",64 % of control
same,T/C,"dose: 125.0 mg/kg/injection, schedule: Q01DX011 (ip), vehicle: carboxymethylcellulose (CMC)",71 % of control
same,T/C,"dose: 250.0 mg/kg/injection, schedule: Q01DX011 (ip), vehicle: carboxymethylcellulose (CMC)",14 % of control
NC(=O)CF,T/C,"dose: 2.5 mg/kg/injection, schedule: Q01DX011 (ip), vehicle: other",72 % of control
CC(C)CN1CC(C)C(=O)N(c2ccccc2)C1=O (stereo not given),T/C,[5],61 % of control
same,T/C,"dose: 31.0 mg/kg/injection, schedule: Q01DX011 (ip), vehicle: methylcellulose (MC)",66 % of control
same,T/C,"dose: 62.0 mg/kg/injection, schedule: Q01DX011 (ip), vehicle: methylcellulose (MC)",73 % of control
same,T/C,[3],75 % of control
same,T/C,[4],68 % of control
O=C1C(NC(=O)C2CCCCC2)=C(N2CC2)C(=O)C(NC(=O)C2CCCCC2)=C1N1CC1,T/C,"dose: 43.75 mg/kg/injection, schedule: Q01DX011 (ip), vehicle: carboxymethylcellulose (CMC)",48 % of control
same,T/C,"dose: 44.0 mg/kg/injection, schedule: Q01DX011 (ip), vehicle: carboxymethylcellulose (CMC)",67 % of control
same,T/C,"dose: 44.0 mg/kg/injection, schedule: Q01DX011 (ip), vehicle: other",76 % of control
same,T/C,"dose: 87.5 mg/kg/injection, schedule: Q01DX011 (ip), vehicle: carboxymethylcellulose (CMC)",9 % of control and 30 % of control
same,T/C,"dose: 88.0 mg/kg/injection, schedule: Q01DX011 (ip), vehicle: other",21 % of control
same,T/C,"dose: 100.0 mg/kg/injection, schedule: Q01DX011 (ip), vehicle: carboxymethylcellulose (CMC)",104 % of control
same,T/C,"dose: 175.0 mg/kg/injection, schedule: Q01DX011 (ip), vehicle: carboxymethylcellulose (CMC)",12 % of control and 33 % of control
same,T/C,"dose: 175.0 mg/kg/injection, schedule: Q01DX011 (ip), vehicle: other",28 % of control
same,T/C,"dose: 200.0 mg/kg/injection, schedule: Q01DX011 (oral), vehicle: carboxymethylcellulose (CMC)",93 % of control
same,T/C,"dose: 400.0 mg/kg/injection, schedule: Q01DX011 (oral), vehicle: carboxymethylcellulose (CMC)",50 % of control
same,T/C,"dose: 800.0 mg/kg/injection, schedule: Q01DX011 (oral), vehicle: carboxymethylcellulose (CMC)",68 % of control
CCCCCCCCCCCCCCCCCCN(C)C,T/C,"dose: 12.0 mg/kg/injection, schedule: Q01DX011 (ip), vehicle: distilled water + alcohol",61 % of control
same,T/C,"dose: 18.0 mg/kg/injection, schedule: Q01DX011 (ip), vehicle: distilled water + alcohol",43 % of control
same,T/C,"dose: 27.0 mg/kg/injection, schedule: Q01DX011 (ip), vehicle: distilled water + alcohol",51 % of control
same,T/C,"dose: 40.0 mg/kg/injection, schedule: Q01DX011 (ip), vehicle: distilled water + alcohol",36 % of control
CCC(=O)O[C@H]1CC[C@H]2[C@@H]3CCC4=CC(=O)CC[C@]4(C)[C@H]3CC[C@]12C,T/C,"dose: 125.0 mg/kg/injection, schedule: Q01DX011 (sc), vehicle: steriod suspending solution",101 % of control and 104 % of control
same,T/C,"dose: 400.0 mg/kg/injection, schedule: Q01DX011 (sc), vehicle: steriod suspending solution",69 % of control
same,T/C,"dose: 666.66 mg/kg/injection, schedule: Q01DX011 (sc), vehicle: steriod suspending solution",61 % of control
CCn1cnc2c(SC(C)C)ncnc21,T/C,"dose: 16.0 mg/kg/injection, schedule: Q01DX011 (ip), vehicle: carboxymethylcellulose (CMC)",42 % of control
same,T/C,"dose: 31.0 mg/kg/injection, schedule: Q01DX011 (ip), vehicle: carboxymethylcellulose (CMC)",4 % of control
CC(=O)CSc1nc(N)nc2nc[nH]c12,T/C,"dose: 3.9 mg/kg/injection, schedule: Q01DX011 (ip), vehicle: methylcellulose (MC)",32 % of control
same,T/C,"dose: 7.8 mg/kg/injection, schedule: Q01DX011 (ip), vehicle: methylcellulose (MC)",6 % of control
same,T/C,"dose: 15.6 mg/kg/injection, schedule: Q01DX011 (ip), vehicle: methylcellulose (MC)",7 % of control
[N-]=[N+]=[N-],T/C,"dose: 1.06 mg/kg/injection, schedule: Q01DX011 (ip), vehicle: carboxymethylcellulose (CMC)",114 % of control
same,T/C,"dose: 1.55 mg/kg/injection, schedule: Q01DX011 (ip), vehicle: carboxymethylcellulose (CMC)",75 % of control
same,T/C,"dose: 2.13 mg/kg/injection, schedule: Q01DX011 (ip), vehicle: carboxymethylcellulose (CMC)",61 % of control
same,T/C,"dose: 3.1 mg/kg/injection, schedule: Q01DX011 (ip), vehicle: carboxymethylcellulose (CMC)",82 % of control
same,T/C,"dose: 4.25 mg/kg/injection, schedule: Q01DX011 (ip), vehicle: carboxymethylcellulose (CMC)",80 % of control
same,T/C,"dose: 6.2 mg/kg/injection, schedule: Q01DX011 (ip), vehicle: carboxymethylcellulose (CMC)",57 % of control
same,T/C,"dose: 8.5 mg/kg/injection, schedule: Q01DX011 (ip), vehicle: carboxymethylcellulose (CMC)",80 % of control
same,T/C,"dose: 12.4 mg/kg/injection, schedule: Q01DX011 (ip), vehicle: carboxymethylcellulose (CMC)",80 % of control
